According to ChEMBL document CHEMBL4265887 (Bioorg Med Chem Lett, 2018):
≈ marks a conversion by molar mass, not a printed value. Calls of active or inactive are those of the source. The rule behind the calls is not given here.

Key:
[1] = target: Cyclin-dependent kinase 4/cyclin D1 (Homo sapiens) (UniProt P11802+P24385); assay: Inhibition of CDK4/Cyclin D1 (unknown origin) at 1 uM; type: protein-complex assay
[2] = target: Protein kinase C alpha type (Homo sapiens) (UniProt P17252); assay: Inhibition of PKCalpha (unknown origin) at 1 uM
[3] = target: Proto-oncogene tyrosine-protein kinase Src (Homo sapiens) (UniProt P12931); assay: Inhibition of c-Src (unknown origin) at 1 uM
Aurora kinase B [4] = target: T1, Aurora kinase B (Homo sapiens, UniProt Q96GD4); assay: Inhibition of recombinant Aurora B (unknown origin) using TAMRA-PKAtide as substrate after 1 hr by fluorescence polarization assay
HCT-116 [5] = assay: Induction of apoptosis in human HCT116 cells at 1 uM after 72 hrs by Annexin V-FITC/propidium iodide staining-based flow cytometric analysis; type: functional, cell-based
[6] = target: CDK2/Cyclin A2 (Homo sapiens) (UniProt P24941+P20248); assay: Inhibition of CDK2/cyclin A (unknown origin) at 1 uM; type: protein-complex assay
[7] = target: Serine/threonine-protein kinase PAK 4 (Homo sapiens) (UniProt O96013); assay: Inhibition of PAK4 (unknown origin) at 1 uM
[8] = target: Epithelial discoidin domain-containing receptor 1 (Homo sapiens) (UniProt Q08345); assay: Inhibition of DDR1 (unknown origin) at 1 uM
[9] = target: Insulin receptor (Homo sapiens) (UniProt P06213); assay: Inhibition of INSR (unknown origin) at 1 uM
[10] = target: Tyrosine-protein kinase receptor UFO (Homo sapiens) (UniProt P30530); assay: Inhibition of AXL (unknown origin) at 1 uM
Aurora kinase A = target: T2, Aurora kinase A (Homo sapiens, UniProt O14965); assay: Inhibition of recombinant Aurora A (unknown origin) using TAMRA-PKAtide as substrate after 30 mins by fluorescence polarization assay
T2 sequence (O14965 whole entry): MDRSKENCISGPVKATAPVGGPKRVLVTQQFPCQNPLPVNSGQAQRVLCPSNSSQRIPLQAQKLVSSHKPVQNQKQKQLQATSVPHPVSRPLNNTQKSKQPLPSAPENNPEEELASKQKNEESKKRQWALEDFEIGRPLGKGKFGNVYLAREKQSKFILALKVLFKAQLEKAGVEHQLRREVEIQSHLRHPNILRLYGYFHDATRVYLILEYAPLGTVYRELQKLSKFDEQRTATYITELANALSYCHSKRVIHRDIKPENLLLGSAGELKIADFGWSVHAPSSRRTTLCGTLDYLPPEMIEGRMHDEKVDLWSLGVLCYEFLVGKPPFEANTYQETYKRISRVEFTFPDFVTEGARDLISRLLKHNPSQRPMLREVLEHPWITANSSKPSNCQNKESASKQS

[11] = target: Platelet-derived growth factor receptor beta (Homo sapiens) (UniProt P09619); assay: Inhibition of PDGFRbeta (unknown origin) at 1 uM
[12] = target: Interleukin-1 receptor-associated kinase 4 (Homo sapiens) (UniProt Q9NWZ3); assay: Inhibition of IRAK4 (unknown origin) at 1 uM
[13] = target: High affinity nerve growth factor receptor (Homo sapiens) (UniProt P04629); assay: Inhibition of TrkA (unknown origin) at 1 uM
[14] = Solubility of the compound in phosphate buffer of pH 2 after 24 hrs by RP-HPLC analysis; type: physicochemical
[15] = target: Proto-oncogene tyrosine-protein kinase receptor Ret (Homo sapiens) (UniProt P07949); assay: Inhibition of RET (unknown origin) at 1 uM
HCT-116 [16] = assay: Cytotoxicity against human HCT116 cells assessed as reduction in cell viability after 48 hrs by MTT assay; type: functional, cell-based; details: HCT-116, 48 h
[17] = Solubility of the compound in phosphate buffer of pH 7.4 after 24 hrs by RP-HPLC analysis; type: physicochemical; details: phosphate buffer, pH 7.4
[18] = target: Serine/threonine-protein kinase pim-1 (Homo sapiens) (UniProt P11309); assay: Inhibition of PIM1 (unknown origin) at 1 uM
[19] = target: Death-associated protein kinase 3 (Homo sapiens) (UniProt O43293); assay: Inhibition of ZIPK (unknown origin) at 1 uM
HCT-116 [20] = assay: Inhibition of cytokinesis in human HCT116 cells at 100 nM after 24 hrs by propidium iodide/RNase staining-based flow cytometric analysis; type: functional, cell-based
[21] = target: Mitogen-activated protein kinase 3 (Homo sapiens) (UniProt P27361); assay: Inhibition of ERK1 (unknown origin) at 1 uM
HCT-116 [22] = assay: Induction of apoptosis in human HCT116 cells at 100 nM after 72 hrs by Annexin V-FITC staining-based flow cytometric analysis; type: functional, cell-based
[23] = target: Fibroblast growth factor receptor 3 (Homo sapiens) (UniProt P22607); assay: Inhibition of FGFR3 (unknown origin) at 1 uM
[24] = target: Serine/threonine-protein kinase B-raf (Homo sapiens) (UniProt P15056); assay: Inhibition of BRAF (unknown origin) at 1 uM
[25] = target: Tyrosine-protein kinase SYK (Homo sapiens) (UniProt P43405); assay: Inhibition of SYK (unknown origin) at 1 uM
[26] = target: Tyrosine-protein kinase JAK3 (Homo sapiens) (UniProt P52333); assay: Inhibition of JAK3 (unknown origin) at 1 uM
[27] = target: Serine/threonine-protein kinase PAK 1 (Homo sapiens) (UniProt Q13153); assay: Inhibition of PAK1 (unknown origin) at 1 uM
[28] = target: Tyrosine-protein kinase CSK (Homo sapiens) (UniProt P41240); assay: Inhibition of CSK (unknown origin) at 1 uM
[29] = target: Vascular endothelial growth factor receptor 2 (Homo sapiens) (UniProt P35968); assay: Inhibition of VEGFR2 (unknown origin) at 1 uM
[30] = target: Hepatocyte growth factor receptor (Homo sapiens) (UniProt P08581); assay: Inhibition of c-MET (unknown origin) at 1 uM
[31] = target: Mast/stem cell growth factor receptor Kit (Homo sapiens) (UniProt P10721); assay: Inhibition of c-KIT (unknown origin) at 1 uM
[32] = target: Receptor-type tyrosine-protein kinase FLT3 (Homo sapiens) (UniProt P36888); assay: Inhibition of FLT3 (unknown origin) at 1 uM
[33] = target: Serine/threonine-protein kinase Chk1 (Homo sapiens) (UniProt O14757); assay: Inhibition of CHK1 (unknown origin) at 1 uM
Aurora kinase B [34] = target: T1, Aurora kinase B; assay: Inhibition of Aurora B phosphorylation at Thr232 residue in human HCT116 cells over 100 nM after 3 hrs by Western blot method; type: cell-based
[35] = target: Tyrosine-protein kinase ABL1 (Homo sapiens) (UniProt P00519); assay: Inhibition of ABL (unknown origin) at 1 uM
[36] = target: Inhibitor of nuclear factor kappa-B kinase subunit beta (Homo sapiens) (UniProt O14920); assay: Inhibition of IKKbeta (unknown origin) at 1 uM
[37] = target: Rho-associated protein kinase 2 (Homo sapiens) (UniProt O75116); assay: Inhibition of ROCK2 (unknown origin) at 1 uM
[38] = target: Angiopoietin-1 receptor (Homo sapiens) (UniProt Q02763); assay: Inhibition of TIE2 (unknown origin) at 1 uM
HCT-15 = assay: Cytotoxicity against human HCT15 cells assessed as reduction in cell viability after 48 hrs by MTT assay; type: functional, cell-based; details: HCT-15, 48 h
HCT-116 [39] = assay: Inhibition of cytokinesis in human HCT116 cells at 1 uM after 24 hrs by propidium iodide/RNase staining-based flow cytometric analysis; type: functional, cell-based
[40] = target: Serine/threonine-protein kinase mTOR (Homo sapiens) (UniProt P42345); assay: Inhibition of mTOR (unknown origin) at 1 uM

T1 sequence (Q96GD4 whole entry): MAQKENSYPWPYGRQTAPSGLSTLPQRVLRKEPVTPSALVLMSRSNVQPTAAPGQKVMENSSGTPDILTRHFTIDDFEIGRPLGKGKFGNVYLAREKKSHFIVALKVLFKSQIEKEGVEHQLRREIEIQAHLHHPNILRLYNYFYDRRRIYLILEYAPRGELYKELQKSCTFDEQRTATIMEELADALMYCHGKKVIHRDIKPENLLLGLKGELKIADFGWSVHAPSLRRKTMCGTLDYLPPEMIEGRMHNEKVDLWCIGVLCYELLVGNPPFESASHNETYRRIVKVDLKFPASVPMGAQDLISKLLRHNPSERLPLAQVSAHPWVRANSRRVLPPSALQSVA
Sequence of Interleukin-1 receptor-associated kinase 4 (Homo sapiens) (Q9NWZ3 whole entry): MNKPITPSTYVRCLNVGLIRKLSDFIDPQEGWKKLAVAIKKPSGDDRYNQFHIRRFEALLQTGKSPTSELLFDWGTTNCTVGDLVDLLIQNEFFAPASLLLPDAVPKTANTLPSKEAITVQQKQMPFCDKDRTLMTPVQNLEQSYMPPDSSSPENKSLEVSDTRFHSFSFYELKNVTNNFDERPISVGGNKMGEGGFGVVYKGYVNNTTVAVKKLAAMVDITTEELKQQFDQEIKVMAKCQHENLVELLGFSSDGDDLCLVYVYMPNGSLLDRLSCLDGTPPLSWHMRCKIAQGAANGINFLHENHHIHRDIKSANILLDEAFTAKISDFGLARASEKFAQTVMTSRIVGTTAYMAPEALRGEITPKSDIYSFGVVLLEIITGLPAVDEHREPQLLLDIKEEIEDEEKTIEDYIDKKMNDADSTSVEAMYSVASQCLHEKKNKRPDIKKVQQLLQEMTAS
Sequence of Platelet-derived growth factor receptor beta (Homo sapiens) (P09619 whole entry): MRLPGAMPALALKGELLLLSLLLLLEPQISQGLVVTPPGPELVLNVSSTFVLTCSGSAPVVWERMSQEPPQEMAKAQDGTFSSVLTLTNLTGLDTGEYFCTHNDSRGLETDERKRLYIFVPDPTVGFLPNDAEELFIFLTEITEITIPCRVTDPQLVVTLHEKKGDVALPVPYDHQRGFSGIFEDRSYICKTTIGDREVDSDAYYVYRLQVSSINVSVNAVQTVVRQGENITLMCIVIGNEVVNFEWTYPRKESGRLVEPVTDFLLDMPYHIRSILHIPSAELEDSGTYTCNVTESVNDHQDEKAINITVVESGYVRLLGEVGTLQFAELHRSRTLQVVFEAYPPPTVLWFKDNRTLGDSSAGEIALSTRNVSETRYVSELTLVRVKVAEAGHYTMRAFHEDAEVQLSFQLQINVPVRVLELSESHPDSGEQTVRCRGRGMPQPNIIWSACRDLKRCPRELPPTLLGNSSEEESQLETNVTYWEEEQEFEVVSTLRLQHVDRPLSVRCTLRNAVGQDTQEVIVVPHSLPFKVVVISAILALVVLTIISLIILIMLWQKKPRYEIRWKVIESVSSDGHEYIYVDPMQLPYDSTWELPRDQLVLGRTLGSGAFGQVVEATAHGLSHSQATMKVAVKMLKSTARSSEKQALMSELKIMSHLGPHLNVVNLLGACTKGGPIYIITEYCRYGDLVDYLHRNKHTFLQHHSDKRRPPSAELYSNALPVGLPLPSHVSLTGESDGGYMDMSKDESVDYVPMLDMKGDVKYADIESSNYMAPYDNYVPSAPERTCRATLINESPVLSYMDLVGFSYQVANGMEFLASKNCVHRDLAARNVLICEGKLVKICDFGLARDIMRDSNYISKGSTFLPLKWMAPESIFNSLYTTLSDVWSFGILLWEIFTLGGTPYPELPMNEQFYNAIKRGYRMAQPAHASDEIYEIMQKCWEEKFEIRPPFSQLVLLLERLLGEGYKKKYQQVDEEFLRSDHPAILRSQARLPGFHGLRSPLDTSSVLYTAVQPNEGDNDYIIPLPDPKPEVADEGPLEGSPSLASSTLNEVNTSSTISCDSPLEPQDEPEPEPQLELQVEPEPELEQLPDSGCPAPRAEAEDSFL
Sequence of Epithelial discoidin domain-containing receptor 1 (Homo sapiens) (Q08345 whole entry, the tested form may be a part): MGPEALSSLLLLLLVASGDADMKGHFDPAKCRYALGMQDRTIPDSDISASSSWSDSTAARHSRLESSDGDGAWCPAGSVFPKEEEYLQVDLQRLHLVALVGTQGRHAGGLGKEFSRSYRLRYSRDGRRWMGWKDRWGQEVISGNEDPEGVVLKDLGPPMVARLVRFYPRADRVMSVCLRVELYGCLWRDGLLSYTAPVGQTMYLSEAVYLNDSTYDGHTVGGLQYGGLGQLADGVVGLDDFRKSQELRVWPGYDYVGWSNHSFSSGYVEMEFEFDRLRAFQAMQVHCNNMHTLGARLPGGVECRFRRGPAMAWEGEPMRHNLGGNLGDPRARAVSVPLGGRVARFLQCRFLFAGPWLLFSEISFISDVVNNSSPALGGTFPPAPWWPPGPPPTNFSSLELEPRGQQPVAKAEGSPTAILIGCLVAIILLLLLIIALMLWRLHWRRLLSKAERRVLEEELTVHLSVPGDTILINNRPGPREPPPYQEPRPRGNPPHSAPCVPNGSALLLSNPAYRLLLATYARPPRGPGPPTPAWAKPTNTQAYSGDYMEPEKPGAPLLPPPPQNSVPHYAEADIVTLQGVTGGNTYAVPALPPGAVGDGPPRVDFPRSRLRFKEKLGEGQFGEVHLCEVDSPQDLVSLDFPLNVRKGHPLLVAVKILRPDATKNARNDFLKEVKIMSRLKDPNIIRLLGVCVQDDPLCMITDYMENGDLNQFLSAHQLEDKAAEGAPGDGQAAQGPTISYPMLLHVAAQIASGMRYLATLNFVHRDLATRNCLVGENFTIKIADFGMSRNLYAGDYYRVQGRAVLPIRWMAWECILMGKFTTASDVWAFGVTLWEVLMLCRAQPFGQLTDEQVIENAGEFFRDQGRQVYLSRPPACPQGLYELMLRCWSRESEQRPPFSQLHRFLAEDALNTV
Sequence of Receptor-type tyrosine-protein kinase FLT3 (Homo sapiens) (P36888 whole entry): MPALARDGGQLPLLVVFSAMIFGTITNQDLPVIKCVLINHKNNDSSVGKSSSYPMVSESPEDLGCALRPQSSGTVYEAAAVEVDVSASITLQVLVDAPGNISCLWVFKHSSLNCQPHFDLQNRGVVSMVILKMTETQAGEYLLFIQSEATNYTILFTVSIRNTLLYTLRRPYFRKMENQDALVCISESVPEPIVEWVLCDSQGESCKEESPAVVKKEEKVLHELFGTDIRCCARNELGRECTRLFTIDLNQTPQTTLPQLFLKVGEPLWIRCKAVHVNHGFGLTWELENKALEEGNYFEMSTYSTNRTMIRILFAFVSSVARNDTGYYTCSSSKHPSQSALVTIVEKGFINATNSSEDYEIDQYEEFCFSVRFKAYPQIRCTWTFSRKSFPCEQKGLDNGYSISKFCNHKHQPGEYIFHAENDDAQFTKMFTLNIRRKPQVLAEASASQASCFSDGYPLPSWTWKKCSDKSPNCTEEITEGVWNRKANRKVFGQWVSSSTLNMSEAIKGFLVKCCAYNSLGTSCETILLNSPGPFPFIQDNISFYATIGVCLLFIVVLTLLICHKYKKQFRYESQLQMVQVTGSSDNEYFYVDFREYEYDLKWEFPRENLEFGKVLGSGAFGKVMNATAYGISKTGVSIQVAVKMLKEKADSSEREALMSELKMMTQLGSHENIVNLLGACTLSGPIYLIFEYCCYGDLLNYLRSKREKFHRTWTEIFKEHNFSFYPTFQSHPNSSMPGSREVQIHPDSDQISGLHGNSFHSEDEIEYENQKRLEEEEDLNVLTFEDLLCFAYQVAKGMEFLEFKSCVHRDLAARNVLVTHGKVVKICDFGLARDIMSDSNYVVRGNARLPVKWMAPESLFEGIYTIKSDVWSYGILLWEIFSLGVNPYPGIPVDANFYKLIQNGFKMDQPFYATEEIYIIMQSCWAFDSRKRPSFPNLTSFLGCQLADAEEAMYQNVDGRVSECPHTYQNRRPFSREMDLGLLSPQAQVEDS
Sequence of Tyrosine-protein kinase CSK (Homo sapiens) (P41240 2-450 limits assumed): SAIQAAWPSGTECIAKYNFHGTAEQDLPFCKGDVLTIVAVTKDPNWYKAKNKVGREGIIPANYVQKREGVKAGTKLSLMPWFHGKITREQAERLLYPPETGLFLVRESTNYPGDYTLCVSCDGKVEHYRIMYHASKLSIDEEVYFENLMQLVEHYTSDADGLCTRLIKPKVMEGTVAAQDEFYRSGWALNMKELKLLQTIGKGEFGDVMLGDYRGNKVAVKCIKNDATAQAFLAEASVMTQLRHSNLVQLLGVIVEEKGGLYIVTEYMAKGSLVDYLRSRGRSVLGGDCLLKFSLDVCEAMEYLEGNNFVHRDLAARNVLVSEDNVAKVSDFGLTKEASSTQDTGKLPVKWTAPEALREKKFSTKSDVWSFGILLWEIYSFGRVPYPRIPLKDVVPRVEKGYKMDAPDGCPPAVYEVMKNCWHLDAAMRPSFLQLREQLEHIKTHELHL
Sequence of Proto-oncogene tyrosine-protein kinase Src (Homo sapiens) (P12931 2-536 limits assumed): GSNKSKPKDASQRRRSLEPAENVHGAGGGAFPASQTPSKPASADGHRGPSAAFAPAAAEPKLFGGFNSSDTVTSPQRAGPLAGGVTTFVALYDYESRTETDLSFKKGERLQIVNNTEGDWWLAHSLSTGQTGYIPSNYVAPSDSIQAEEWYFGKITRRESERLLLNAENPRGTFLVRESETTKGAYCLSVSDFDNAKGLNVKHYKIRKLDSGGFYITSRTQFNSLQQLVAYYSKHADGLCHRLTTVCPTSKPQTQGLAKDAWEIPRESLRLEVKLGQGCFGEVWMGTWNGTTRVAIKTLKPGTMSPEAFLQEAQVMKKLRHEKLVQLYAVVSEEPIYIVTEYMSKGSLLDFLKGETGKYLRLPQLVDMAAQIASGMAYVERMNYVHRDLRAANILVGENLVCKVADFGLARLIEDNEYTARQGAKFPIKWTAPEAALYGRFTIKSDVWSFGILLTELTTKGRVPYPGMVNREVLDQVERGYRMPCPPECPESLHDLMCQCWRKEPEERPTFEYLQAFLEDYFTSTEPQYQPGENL

inhibition [1]: 27% | inhibition [2]: 17.9% | inhibition [3]: 94.4% | IC50 (Aurora kinase B [4]): 23 nM | inhibition [6]: 22.8% | inhibition [7]: 11.2% | inhibition [8]: 75.9% | inhibition [9]: 3% | inhibition [10]: 37.2% | IC50 (Aurora kinase A): 9 nM | inhibition [11]: 61.3% | inhibition [12]: 8.14% | inhibition [13]: 46.9% | solubility at 24 h [14]: 8 µM (≈ 3.31 µg/mL) | inhibition [15]: 97.2% | solubility at 24 h [17]: 13.1 µM (≈ 5.42 µg/mL) | inhibition [18]: 41.6% | inhibition [21]: 17.6% | inhibition [23]: 14.4% | inhibition [24]: -0.3% | inhibition [25]: 51.1% | inhibition [26]: 54.6% | inhibition [27]: 5.28% | inhibition [28]: 19.5% | inhibition [29]: 68.2% | inhibition [30]: 2.76% | inhibition [31]: 28.9% | inhibition [32]: 46.6% | inhibition [33]: 16.4% | inhibition (Aurora kinase B [34]): Active | inhibition [35]: 88.8% | inhibition [36]: 30.7% | inhibition [37]: 15.7% | inhibition [38]: 0.75% | inhibition [40]: 3.66%
SMILES: CNC(=O)Nc1sc2c(C(C)C)cc(NS(=O)(=O)N(C)C)cc2c1C(N)=O
Activity (HCT-116 [5]): inactive | IC50 (HCT-116 [16]): 300 nM | inhibition [19]: 39.6% | Cytokinesis inhibition (active/inactive call) (HCT-116 [20]): Active | Activity (HCT-116 [22]): inactive | IC50 (HCT-15): 1600 nM | Cytokinesis inhibition (active/inactive call) (HCT-116 [39]): Active
